Test results as given in patent publication US6642250B2, “1,8-naphthyridin-2(1H)-one derivatives” (Grelan Pharmaceutical Co., Ltd., priority 1999, dated 2003).

Experiments:
PDE I = assay: PDE inhibition, type I PDE (cGMP substrate, calmodulin/CaCl2 added); format: biochemical; settings: PDE I from porcine hearts, cGMP 1 μM; read-out: Inhibition of PDE Isoenzymes (IC50) I
Description: (§1) The assays for PDE activity were conducted according to Nicholson et al. method (Br. J. Pharmacol., 97, 889 (1989)).
(§2) Among PDE isozymes, type I, II, III and IV PDEs as used herein were separated from porcine hearts by using an anion exchange chromatography. Type V PDE was also separated from porcine aortae with an anion exchange chromatography and used herein.
(§3) Each PDE isozyme was admixed with ethylene glycol (EG) to adjust the final EG concentration to 30%, then stored at −20° C. and diluted when used. The enzymatic activity for PDE I and V was measured using cGMP as a substrate while that for POE II, III and IV was measured using cAMP.
(§4) [^3H]-cAMP (962 GBq/mmol; Amersham, 25 μl (100,000 cpm)) or [^3H]-cGMP (962 GBq/mmol; Amersham, 25 μl (100,000 cpm)) was added together with each PDE isozyme (25 μl) to an incubation buffer solution with the composition given below to adjust the total volume to 250 μl. Each test compound was dissolved in DMSO to adjust the final concentration to 1% (2.5 μl/tube).
(§5) Incubation buffer solution (pH7.5):
(§6) Tris-HCl (50 mM), magnesium chloride (6 mM), dithiothreitol
(§7) (2.5 mM), 5-nucleotidase (4 μg/ml), bovine serum albumin
(§8) (0.23 mg/ml), and cAMP (1 μM) [or cGMP (1 μM)]
(§9) A mixture of the aforementioned test compound solution and the buffer solution was incubated at 30° C. for 20 minutes. The reaction was quenched by admixing with 1 ml of anion exchange resin slurry (AG1-X8, 200-400 meshes, chloride form; Bio-Rad) to absorb unreacted substrates.
(§10) After the reaction stopped, the mixture was centrifuged at 200×g for 10 minutes, and the resulting supernatant was collected with vials in 250 μl aliquots. To each vial was added 5 ml of ACS-II (scintillator, Amersham). The radioactivity was measured with a liquid scintillator counter for [^3H]-adenosine or [^3H]-guanosine and set as the PDE activity. The measurements were conducted under conditions wherein the enzymatic activity was elevated by adding calmodulin (20 U/ml; Amersham) and calcium chloride (0.1 mM) for PDE-I and cGMP (1 μM) for PDE II, respectively.
(§11) The % inhibition was calculated for test compounds, and IC50 (the concentration of each test compound required for 50% inhibition) was obtained by Probit method. The aforementioned rolipram ((−)-isomer, optical purity: 91% e.e.) known as the PDE IV inhibitor in the prior art was used for the reference compound in this assay.

PDE II = target: T1, PDE II (Sus scrofa, UniProt F1SUV3); assay: PDE inhibition, type II PDE (cAMP substrate, cGMP added); format: biochemical; settings: PDE II from porcine hearts, cAMP 1 μM; read-out: Inhibition of PDE Isoenzymes (IC50) II
T1 sequence (F1SUV3 1-945): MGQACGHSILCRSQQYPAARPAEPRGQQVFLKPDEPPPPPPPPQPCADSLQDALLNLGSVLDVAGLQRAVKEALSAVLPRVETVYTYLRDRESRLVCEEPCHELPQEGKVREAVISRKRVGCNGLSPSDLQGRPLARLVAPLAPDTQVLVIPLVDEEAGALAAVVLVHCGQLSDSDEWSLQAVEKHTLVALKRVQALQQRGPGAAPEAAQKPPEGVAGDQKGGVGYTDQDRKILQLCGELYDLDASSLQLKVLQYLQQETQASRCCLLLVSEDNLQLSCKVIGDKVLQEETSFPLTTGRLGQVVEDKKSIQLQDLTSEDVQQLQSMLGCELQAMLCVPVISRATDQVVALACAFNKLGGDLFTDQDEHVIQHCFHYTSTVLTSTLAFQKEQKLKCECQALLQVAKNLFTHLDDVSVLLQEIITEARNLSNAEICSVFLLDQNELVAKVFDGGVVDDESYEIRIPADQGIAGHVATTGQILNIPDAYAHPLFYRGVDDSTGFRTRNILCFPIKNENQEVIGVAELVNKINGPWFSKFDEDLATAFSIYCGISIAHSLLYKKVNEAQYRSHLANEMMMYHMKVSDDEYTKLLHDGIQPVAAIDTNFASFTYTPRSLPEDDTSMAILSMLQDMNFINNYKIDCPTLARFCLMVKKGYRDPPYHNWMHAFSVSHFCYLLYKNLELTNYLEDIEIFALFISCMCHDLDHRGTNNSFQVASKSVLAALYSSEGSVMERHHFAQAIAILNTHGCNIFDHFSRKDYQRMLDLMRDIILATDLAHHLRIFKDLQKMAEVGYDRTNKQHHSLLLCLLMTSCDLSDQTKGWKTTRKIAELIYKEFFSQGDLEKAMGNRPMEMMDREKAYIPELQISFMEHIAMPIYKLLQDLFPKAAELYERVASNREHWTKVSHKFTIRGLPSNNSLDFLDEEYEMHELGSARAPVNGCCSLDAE
Description: as §1, §2, §3, §4, §5, §6, §7, §8, §9, §10, §11

PDE IV = system: T2, PDE IV; assay: PDE inhibition, type IV PDE (cAMP substrate); format: biochemical; settings: PDE IV from porcine hearts, cAMP 1 μM; read-out: Inhibition of PDE Isoenzymes (IC50) IV
T2 construct: other: PDE IV from porcine hearts, cAMP 1 μM
Description: as §1, §2, §3, §4, §5, §6, §7, §8, §9, §10, §11
Further, for a comparison with compounds as disclosed in JP, A, 63-159382 (1988), the PDE-inhibiting activity was also measured for Compounds A and D in Table 1 of JP, A, 63-159382 (1988).

PDE V = target: T3, PDE V (Sus scrofa, UniProt A0A287B475); assay: PDE inhibition, type V PDE (cGMP substrate); format: biochemical; settings: PDE V from porcine aortae, cGMP 1 μM; read-out: Inhibition of PDE Isoenzymes (IC50) V
T3 construct: Type V PDE was also separated from porcine aortae with an anion exchange chromatography and used herein
Description: as §1, §2, §3, §4, §5, §6, §7, §8, §9, §10, §11

| SMILES | melting point | IC50 (PDE I) | IC50 (PDE II) | IC50 (PDE IV) | IC50 (PDE V) |
| --- | --- | --- | --- | --- | --- |
| O=c1c(Cc2ccccn2)cc2cccnc2n1-c1cccc([N+](=O)[O-])c1 [Example 1, 1-(3-Nitrophenyl)-3-(pyridin-2-ylmethyl)-1,8-naphthyridin-2(1H)-one] | 229 to 231 °C |  |  |  |  |
| O=c1c(Cc2ccncc2)cc2cccnc2n1-c1cccc([N+](=O)[O-])c1 [Example 4, 1-(3-Nitrophenyl)-3-(pyridin-4-ylmethyl)-1,8-naphthyridin-2(1H)-one] | 230 °C |  |  |  |  |
| O=c1c(CCCc2ccncc2)cc2cccnc2n1-c1cccc(Cl)c1 [Example 9, 1-(3-Chlorophenyl)-3-[3-(pyridin-4-yl)propyl]-1,8-naphthyridin-2(1H)-one] | 148 to 149 °C |  |  |  |  |
| Cc1ccc2cc(CCCc3ccncc3)c(=O)n(-c3cccc([N+](=O)[O-])c3)c2n1 [Example 11, 7-Methyl-1-(3-nitrophenyl)-3-[3-(pyridin-4-yl)propyl]-1,8-naphthyridin-2(1H)-one] | 165 to 166 °C |  |  |  |  |
| CSc1cccc(-n2c(=O)c(CCCc3ccncc3)cc3ccc(C)nc32)c1 [Example 12, 7-Methyl-1-(3-methylthiophenyl)-3-[3-(pyridin-4-yl)propyl]-1,8-naphthyridin-2(1H)-one] | 158 to 159 °C |  |  |  |  |
| O=c1c(CCCCCCCc2ccncc2)cc2cccnc2n1-c1cccc([N+](=O)[O-])c1 [Example 18, 1-(3-Nitrophenyl)-3-[7-(pyridin-4-yl)heptyl]-1,8-naphthyridin-2(1H)-one] | 189 to 192 °C |  |  |  |  |
| O=c1c(CCc2cccs2)cc2cccnc2n1-c1cccc([N+](=O)[O-])c1 [Example 19, 1-(3-Nitrophenyl)-3-[2-(2-thienyl)ethyl]-1,8-naphthyridin-2(1H)-one] | 175 to 176 °C |  |  |  |  |
| O=c1c(CCCc2ccco2)cc2cccnc2n1-c1cccc([N+](=O)[O-])c1 [Example 20, 1-(3-Nitrophenyl)-3-[3-(2-furyl)propyl]-1,8-naphthyridin-2(1H)-one] | 166 to 167 °C |  |  |  |  |
| O=c1c(CCCc2ccoc2)cc2cccnc2n1-c1cccc([N+](=O)[O-])c1 [Example 21, 1-(3-Nitrophenyl)-3-[3-(3-furyl)propyl]-1,8-naphthyridin-2(1H)-one] | 185 to 186 °C |  |  |  |  |
| O=c1c(CCCCc2nc3ccccc3s2)cc2cccnc2n1-c1cccc([N+](=O)[O-])c1 [Example 22, 1-(3-Nitrophenyl)-3-[4-(benzothiazol-2-yl)butyl]-1,8-naphthyridin-2(1H)-one] | 167.5 to 169.5 °C |  |  |  |  |
| N#Cc1cccc(-n2c(=O)c(CCCc3ccncc3)cc3cccnc32)c1 [Example 25, 1-(3-Cyanophenyl)-3-[3-(pyridin-4-yl)propyl]-1,8-naphthyridin-2(1H)-one] | 202 to 203.5 °C |  |  |  |  |
| CS(=O)(=O)c1cccc(-n2c(=O)c(CCCc3ccncc3)cc3cccnc32)c1 [Example 26, 1-(3-Methylsulfonylphenyl)-3-[3-(pyridin-4-yl)propyl]-1,8-naphthyridin-2(1H)-one] | 127 to 131 °C |  |  |  |  |
| O=c1c(CCCc2ccccn2)cc2cccnc2n1-c1cccc([N+](=O)[O-])c1 [Example 28, 1-(3-Nitrophenyl)-3-[3-(pyridin-2-yl)propyl]-1,8-naphthyridin-2(1H)-one] | 201 to 202 °C |  |  |  |  |
| O=c1c(CCc2nc3ccccc3s2)cc2cccnc2n1-c1cccc([N+](=O)[O-])c1 [Example 29, 1-(3-Nitrophenyl)-3-[2-(benzothiazol-2-yl)ethyl]-1,8-naphthyridin-2(1H)-one] | 178 to 179 °C |  |  |  |  |
| O=c1c(CCCc2nc3ccccc3s2)cc2cccnc2n1-c1cccc([N+](=O)[O-])c1 [Example 30, 1-(3-Nitrophenyl)-3-[3-(benzothiazol-2-yl)propyl]-1,8-naphthyridin-2(1H)-one] | 185 to 186 °C |  |  |  |  |
| O=c1c(CCCc2nccs2)cc2cccnc2n1-c1cccc([N+](=O)[O-])c1 [Example 31, 1-(3-Nitrophenyl)-3-[3-(thiazol-2-yl)propyl]-1,8-naphthyridin-2(1H)-one] | 198 to 199 °C |  |  |  |  |
| N#Cc1cccc(-n2c(=O)c(Cc3ccncc3)cc3cccnc32)c1 [Example No. 3, 1-(3-Cyanophenyl)-3-(pyridin-4-ylmethyl)-1,8-naphthyridin-2(1H)-one] | 229 to 230 °C | > 100 µM | > 100 µM | 1.2 µM | 3.9 µM |
| O=c1c(CCCCc2ccccn2)cc2cccnc2n1-c1cccc([N+](=O)[O-])c1 [Example No. 13, 1-(3-Nitrophenyl)-3-[4-(pyridin-2-yl)butyl]-1,8-naphthyridin-2(1H)-one] | 163 to 165 °C | 62 µM | 60 µM | 1.2 µM | 13 µM |
| O=c1c(CCCCc2ccncc2)cc2cccnc2n1-c1cccc([N+](=O)[O-])c1 [Example No. 15, 1-(3-Nitrophenyl)-3-[4-(pyridin-4-yl)butyl]-1,8-naphthyridin-2(1H)-one] | 168.8 to 169.6 °C | 100 µM | 47 µM | 1.4 µM | 8.7 µM |
| O=c1c(CCCCCc2ccncc2)cc2cccnc2n1-c1cccc([N+](=O)[O-])c1 [Example No. 17, 1-(3-Nitrophenyl)-3-[5-(pyridin-4-yl)pentyl]-1,8-naphthyridin-2(1H )-one] | 188.8 to 189.6 °C | > 100 µM | > 100 µM | 2.2 µM | > 100 µM |
